Measured values: patent publication EP0360750A2, “Novel herbicide tolerant plants” (CIBA-GEIGY AG, priority 1988, dated 1990)

Columns and labels:
AHAS = AHAS enzyme assay: AHAS activity remaining in the presence of herbicides or amino acids; format: biochemical, Nicotiana tabacum; settings: for % AHAS activity remaining with Ile / % AHAS activity remaining with Leu / % AHAS activity remaining with Val: 10mM
Method: The weight of the material to be assayed is determined either by weighing the pellet obtained by refrigerated centrifugation of a cell suspension or by weighing callus, leaf or root tissue placed into liquid nitrogen and macerated to a fine powder. One volume (in ml) of cold homogenization buffer equal to the weight (in g) of the cell suspension pellet or equal to two times the weight (in g) of tissue is added and the mixture is passed through a French pressure cell at 15,000 psi or is ground with sand in a mortar and pestle. All subsequent steps are carried out keeping the material cold (about 4°C). The cells are disrupted at 16,000 psi, collecting the cell exudate into a container on ice. The exudate is centrifuged 5 min at 10,000 rpm to clear the cell debris. The volume of the supernate is measured and enzyme grade ammonium sulfate added to 25 % saturation (144 mg (NH₄)₂SO₄ per ml supernate). The mixture is stirred on ice for 15 min, then centrifuged for 5 min at 10,000 rpm. The pellet is discarded and the supernate adjusted to 50 % saturation with ammonium sulfate (158 mg (NH₄)₂SO₄ per ml supernate). After stirring on ice for 15 min, the pellet is collected by centrifugation at 10,000 rpm for 5 min. The obtained pellet is dissolved in 1-2 ml of column buffer. The extract is desalted by application to a Sephadex G50 column equilibrated with column buffer. The sample is eluted with column buffer, collecting approximately 2 ml of sample for each ml of sample applied to the column.
Homogenization buffer and column buffer are chosen depending on the source of the AHAS to be assayed: Tobacco homogenization buffer consists of: 50 mM NaH₂PO₄ buffer pH 7.0, 0.5 mM EDTA pH 7.0, 0.5 mM MgCl₂, 1 mM sodium pyruvate pH 7.0, 10 µM FAD, 1 mM PMSF, 10 % glycerol. Maize homogenization buffer consists of: 50 mM Tris pH 7.5, 1 mM EDTA pH 7.5, 5 mM MgCl₂, 20 mM sodium pyruvate pH 7.0, 10 µM FAD, 1 mM PMSF, 1 mM DTT, 1 mM TPP, 10 % glycerol. Tobacco column buffer consists of: 50 mM NaH₂PO₄ buffer pH 7.0, 0.1 mM EDTA, 0.5 mM MgCl₂, 10 µM FAD, 1 mM PMSF, 10 % glycerol. Maize column buffer consists of: 50 mM Tris pH 7.5, 5 mM MgCl₂, 10 µM FAD, 0.1 mM EDTA, 1 mM PMSF, 1 mM DTT, 10 % glycerol.
5-50 µl of an extract prepared according to EXAMPLE 30 are dissolved in a total volume of 0.5 ml of reaction mixture (see below). The mixture is incubated for 30 min at 37°C. The reaction is stopped by the addition of 50 µl of 6 N H₂SO₄. The mixture is incubated for 15 min at 60°C, then treated with 625 µl of a-naphthol reagent (500 µl 5 % a-naphthol in 2.5 M NaOH and 125 µl 25 mg/ml creatine) and incubated another 15 min at 60°C. If a precipitate has formed, this is spun out, and the absorbance measured at 520 nm. The amount of acetoin formed is calculated from a standard curve developed using 0.4 µg to 10 µg acetoin. The specific activity is expressed as pKat acetoin per mg protein.
1-20 µl of a sample are placed in a ELISA plate well with a total volume of 0.15 ml of reaction mixture. The mixture is reacted for 30 min at 37°C. The reaction is stopped by the addition of 50 µl of 2.4 M H₂SO₄ containing 1 % creatine. The mixture is incubated for 30 min at 60°C. Any precipitate present is separated by centri fugation. 150 µl of the assay mixture are transferred to a new ELISA plate, treated with 100 µl 10 % a-naphthol in 5M NaOH and incubated another 20 min at 60°C. The absorbance is measured at 520 nm, and the specific activity expressed as under a).
Ten point inhibition curves are generated by determining AHAS activity in the presence of sulfonylurea, imidazolinone and triazolopyrimidine herbicides. The sulfonylurea and triazolopyrimidine herbicides are included in the reaction mixture to give a range of final concentrations of the inhibitors between 1 nM and 10,000 nM. The imidazolinone herbicides are included in the concentration ranges of 10 nM to 100,000 nM. […]

[1] = system: transgenic tobacco plants; assay: Leaf disc herbicide tolerance test of transgenic tobacco plants; format: cell-based, cv. Havana 38; settings: after 40 days
Method: After 3-6 weeks of growth in light, the cultured tissue pieces are evaluated for their ability to form green shoots in the presence of the inhibitor. In analogy, sections from stems, petioles, roots, cotyledons, and hypocotyls are used. The herbicide tolerance of the transgenic plants obtained according to EXAMPLE 23 and 24 using CGA1402 are essentially determined as described in EXAMPLE 11a. Leaf discs are cut from different transgenic plants, weighed and then placed, lower side up, onto solidified MSBN medium containing 0, 10, 30, 100 and 300 ppb of SU872. The culture plates are incubated in the light at 25-28°C. […] Discs are inspected visually and evaluated for shoot and/or callus formation.

SMILES: CC[C@H](C)[C@H](N)C(=O)O [Ile, isoleucine]
- % AHAS activity remaining with Ile (AHAS; strain S3 (Table 2)): 80%
- % AHAS activity remaining with Ile (AHAS; strain Su 6 (Table 2)): 66%
- % AHAS activity remaining with Ile (AHAS; strain Su 8 (Table 2)): 95%
- % AHAS activity remaining with Ile (AHAS; strain Su 10 (Table 2)): 102%
- % AHAS activity remaining with Ile (AHAS; strain Su 20 (Table 2)): 58%
- % AHAS activity remaining with Ile (AHAS; strain Su 25 (Table 2)): 100%
- % AHAS activity remaining with Ile (AHAS; strain Su 27 (Table 2)): 92%
- % AHAS activity remaining with Ile (AHAS; strain Su 41 (Table 2)): 97%

SMILES: CC(C)C[C@H](N)C(=O)O [Leu, leucine]
- % AHAS activity remaining with Leu (AHAS; strain S3 (Table 2)): 38%
- % AHAS activity remaining with Leu (AHAS; strain Su 6 (Table 2)): 58%
- % AHAS activity remaining with Leu (AHAS; strain Su 8 (Table 2)): 61%
- % AHAS activity remaining with Leu (AHAS; strain Su 10 (Table 2)): 62%
- % AHAS activity remaining with Leu (AHAS; strain Su 20 (Table 2)): 53%
- % AHAS activity remaining with Leu (AHAS; strain Su 25 (Table 2)): 84%
- % AHAS activity remaining with Leu (AHAS; strain Su 27 (Table 2)): 81%
- % AHAS activity remaining with Leu (AHAS; strain Su 41 (Table 2)): 71%

SMILES: COCCOc1ccccc1S(=O)(=O)NC(=O)Nc1nc(OC)nc(OC)n1 [SU464, 2-(2-methoxyethoxy)-N-[(4,6-dimethoxy-1,3,5-triazin-2-yl)-aminocarbonyl]benzenesulfonamide]
- % AHAS activity remaining with SU464 (AHAS; 0.21µM, strain S3 (Table 2)): 44%
- % AHAS activity remaining with SU464 (AHAS; 0.21µM, strain Su 6 (Table 2)): 36%
- % AHAS activity remaining with SU464 (AHAS; 0.21µM, strain Su 8 (Table 2)): 38%
- % AHAS activity remaining with SU464 (AHAS; 0.21µM, strain Su 10 (Table 2)): 37%
- % AHAS activity remaining with SU464 (AHAS; 0.21µM, strain Su 20 (Table 2)): 32%
- % AHAS activity remaining with SU464 (AHAS; 0.21µM, strain Su 25 (Table 2)): 32%
- % AHAS activity remaining with SU464 (AHAS; 0.21µM, strain Su 27 (Table 2)): 39%
- % AHAS activity remaining with SU464 (AHAS; 0.21µM, strain Su 41 (Table 2)): 32%
- % AHAS activity remaining with SU464 (AHAS; 10.6µM, strain S3 (Table 2)): 24%
- % AHAS activity remaining with SU464 (AHAS; 10.6µM, strain Su 6 (Table 2)): 15%
- % AHAS activity remaining with SU464 (AHAS; 10.6µM, strain Su 8 (Table 2)): 16%
- % AHAS activity remaining with SU464 (AHAS; 10.6µM, strain Su 10 (Table 2)): 20%
- % AHAS activity remaining with SU464 (AHAS; 10.6µM, strain Su 20 (Table 2)): 21%
- % AHAS activity remaining with SU464 (AHAS; 10.6µM, strain Su 25 (Table 2)): 18%
- % AHAS activity remaining with SU464 (AHAS; 10.6µM, strain Su 27 (Table 2)): 19%
- % AHAS activity remaining with SU464 (AHAS; 10.6µM, strain Su 41 (Table 2)): 21%

SMILES: COC(=O)c1ccccc1S(=O)(=O)NC(=O)Nc1nc(OC(F)F)cc(OC(F)F)n1 [SU872, 2-methoxycarbonyl-N-[(4,6-bis{difluoromethoxy}-pyrimidin-2-yl)-aminocarbonyl]benzenesulfonamide]
- Mean mg fresh weight per disc ± standard deviation (n=7) ([1]; 10 ppb SU872, plant A3 (transformed with CGA1402, 35S/wild-type Arabidopsis AHAS)): 2151 ± 995 mg
- Mean mg fresh weight per disc ± standard deviation (n=7) ([1]; 10 ppb SU872, plant A4 (transformed with CGA1402, 35S/wild-type Arabidopsis AHAS)): 2847 ± 548 mg
- Mean mg fresh weight per disc ± standard deviation (n=7) ([1]; 10 ppb SU872, plant D2 (genomic clone of AHAS from chlorsulfuron tolerant mutant GH-50), discs bleached, not enlarged, no callus): 70 ± 14 mg
- Mean mg fresh weight per disc ± standard deviation (n=7) ([1]; 10 ppb SU872, plant type E (wild-type tobacco, cv. Havana 38), discs bleached, not enlarged, no callus): 87 ± 19 mg
- Mean mg fresh weight per disc ± standard deviation (n=7) ([1]; 30 ppb SU872, plant A3): 180 ± 98 mg
- Mean mg fresh weight per disc ± standard deviation (n=7) ([1]; 30 ppb SU872, plant A4): 333 ± 174 mg
- Mean mg fresh weight per disc ± standard deviation (n=7) ([1]; 100 ppb SU872, plant A3): 33 ± 29 mg
- Mean mg fresh weight per disc ± standard deviation (n=7) ([1]; 100 ppb SU872, plant A4): 19 ± 15 mg
- % AHAS activity remaining with SU872 (AHAS; 0.21µM, strain S3 (Table 2)): 17%
- % AHAS activity remaining with SU872 (AHAS; 0.21µM, strain Su 6 (Table 2)): 27%
- % AHAS activity remaining with SU872 (AHAS; 0.21µM, strain Su 8 (Table 2)): 32%
- % AHAS activity remaining with SU872 (AHAS; 0.21µM, strain Su 10 (Table 2)): 39%
- % AHAS activity remaining with SU872 (AHAS; 0.21µM, strain Su 20 (Table 2)): 18%
- % AHAS activity remaining with SU872 (AHAS; 0.21µM, strain Su 25 (Table 2)): 20%
- % AHAS activity remaining with SU872 (AHAS; 0.21µM, strain Su 27 (Table 2)): 36%
- % AHAS activity remaining with SU872 (AHAS; 0.21µM, strain Su 41 (Table 2)): 15%
- % AHAS activity remaining with SU872 (AHAS; 10.6µM, strain S3 (Table 2)): 14%
- % AHAS activity remaining with SU872 (AHAS; 10.6µM, strain Su 6 (Table 2)): 12%
- % AHAS activity remaining with SU872 (AHAS; 10.6µM, strain Su 8 (Table 2)): 12%
- % AHAS activity remaining with SU872 (AHAS; 10.6µM, strain Su 10 (Table 2)): 15%
- % AHAS activity remaining with SU872 (AHAS; 10.6µM, strain Su 20 (Table 2)): 17%
- % AHAS activity remaining with SU872 (AHAS; 10.6µM, strain Su 25 (Table 2)): 18%
- % AHAS activity remaining with SU872 (AHAS; 10.6µM, strain Su 27 (Table 2)): 20%
- % AHAS activity remaining with SU872 (AHAS; 10.6µM, strain Su 41 (Table 2)): 12%

SMILES: CC(C)[C@H](N)C(=O)O [Val, valine]
- % AHAS activity remaining with Val (AHAS; strain S3 (Table 2)): 69%
- % AHAS activity remaining with Val (AHAS; strain Su 6 (Table 2)): 82%
- % AHAS activity remaining with Val (AHAS; strain Su 8 (Table 2)): 81%
- % AHAS activity remaining with Val (AHAS; strain Su 10 (Table 2)): 48%
- % AHAS activity remaining with Val (AHAS; strain Su 20 (Table 2)): 75%
- % AHAS activity remaining with Val (AHAS; strain Su 25 (Table 2)): 86%
- % AHAS activity remaining with Val (AHAS; strain Su 27 (Table 2)): 91%
- % AHAS activity remaining with Val (AHAS; strain Su 41 (Table 2)): 83%
